“And” between values parts separate entries of the source, which are not always exact repeats. Equal entries are not always repeated. Where two headings read alike, the source gives them in different places.
What was measured:
[1] = system: Cryptococcus neoformans ATCC 90113; assay: Antimicrobial microdilution assay against Cryptococcus neoformans (modified CLSI/NCCLS, optical density); format: cell-based; settings: for X more potent than Amphotericin B: C. neoformans, ratio of molar IC50 to Amphotericin B; for C. neoformans IC50 / IC50: in vitro, C. neoformans ATCC 90113; for IC50: read-out: C. neoformans IC50 (mol/L)
In short: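 Broth microdilution (modified CLSI) in RPMI pH 6.0, samples serially diluted in 20% DMSO/saline and tested in duplicate, growth followed by OD630 before and after incubation. MFC is the lowest concentration giving no growth when 5 μL from clear wells is plated on agar.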

[2] = system: L. donovani promastigotes; assay: Antileishmanial Alamar Blue assay on promastigotes; format: cell-based, Leishmania donovani; settings: for X more potent than Pentamidine: L. donovani, ratio of molar IC50 to Pentamidine
In short: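 L. donovani promastigotes in RPMI 1640 with 10% FCS, from 3-day culture, were set at 5×10^5/mL and exposed to compound (50-3.1 μg/mL) for 48 hours at 26° C. Growth read by Alamar Blue fluorescence (ex 544/em 590 nm); IC50 from percent growth versus concentration.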

[3] = system: Plasmodium falciparum W2 clone (Indochina, chloroquine-resistant); assay: In vitro antimalarial assay, chloroquine-resistant W2 clone; format: cell-based; settings: W2 clone; for IC50: converted with molecular weight, read-out: P. falciparum W2 IC50; for X more potent than chloroquine: molar IC50 ratio versus chloroquine
In short: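 Parasites grown in type A human RBCs; assay run on infected cell suspension at 2% parasitemia and 2% hematocrit, in duplicate at several concentrations. IC50 taken from dose curves, per the Makler method, with DMSO as vehicle; Vero cytotoxicity run in parallel to derive a selectivity index.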

[4] = promastigotes, 48 hours, Alamar Blue
[5] = promastigotes, 48 hours, Alamar Blue, read-out: L. donavani IC50

[Cl][Mn-2]([Cl])([Cl])[Cl].[Mn+2].c1ccc(CN2CCCN3CCCN(CCCN(Cc4ccccc4)CC3)CC2)cc1 [BME08, [Mn(Bn2PBCyclam)][MnCl4]]
X more potent than Amphotericin B [1]: 0.13
C. neoformans IC50 [1]: 1.203 µg/mL
IC50 [1]: 1.79 µM
X more potent than Pentamidine [2]: 2 and 2.01
L. donovani IC50 [2, 4]: 1.78 µg/mL
IC50 [2, 5]: 2.65 µM
IC50 ([2]; read-out: IC50 against L. donovani): 2.65 µM
P. falciparum W2 IC50 [3]: 0.1206 µg/mL
IC50 [3]: 0.179 µM
X more potent than chloroquine [3]: 3.78

CN1CCCN2CCN(CCCN(Cc3cccc(CN4CCCN5CCN(C)CCCN(CC5)CC4)c3)CC2)CC1.Cl.Cl.Cl.Cl.Cl.Cl.Cl.Cl [TJS04, m-CB-cyclams HCl salt]
X more potent than Amphotericin B [1]: 0.61
C. neoformans IC50 [1]: 0.380 µg/mL
IC50 ([1]; HCl salt): 0.39 µM
X more potent than Pentamidine [2]: 0.50
L. donovani IC50 [2, 4]: 10.37 µg/mL
IC50 ([2]; promastigotes, 48 hours, Alamar Blue, HCl salt, read-out: L. donavani IC50): 10.7 µM
P. falciparum W2 IC50 [3]: 0.6558 µg/mL
IC50 [3]: 0.75 µM
X more potent than chloroquine [3]: 0.90

c1ccc(CN2CCN3CCCN(CC2)CCN(Cc2ccccc2)CC3)cc1 [AW009, Bn2PBCyclen]
X more potent than Amphotericin B [1]: 0.01
C. neoformans IC50 [1]: 6.740 µg/mL
IC50 [1]: 17.2 µM
X more potent than Pentamidine [2]: 0.10
L. donovani IC50 [2, 4]: 21.40 µg/mL
IC50 [2, 5]: 54.5 µM
P. falciparum W2 IC50 [3]: 1.5560 µg/mL
IC50 [3]: 3.96 µM
X more potent than chloroquine [3]: 0.17

c1cc(CN2CCCN3CCCN(CCCNCC3)CC2)ccc1CN1CCCN2CCCN(CCCNCC2)CC1 [SLK10, p-H2PBCyclams]
X more potent than Amphotericin B [1]: 0.01
C. neoformans IC50 [1]: 15.010 µg/mL
IC50 [1]: 25.8 µM
X more potent than Pentamidine [2]: 0.20
L. donovani IC50 [2, 4]: 15.50 µg/mL
IC50 [2, 5]: 26.6 µM
P. falciparum W2 IC50 [3]: 1.7920 µg/mL
IC50 [3]: 3.07 µM
X more potent than chloroquine [3]: 0.22

CC(=O)[O-].F[P-](F)(F)(F)(F)F.[Ni+2].c1ccc(CN2CCCN3CCCN(CCCN(Cc4ccccc4)CC3)CC2)cc1 [DJD22, [Ni(Bn2PBCyclam)(OAc)]PF6]
X more potent than Amphotericin B [1]: 0.03
C. neoformans IC50 [1]: 5.240 µg/mL
IC50 [1]: 7.67 µM
X more potent than Pentamidine [2]: 0.28
L. donovani IC50 [2, 4]: 13.10 µg/mL
IC50 [2, 5]: 19.2 µM
P. falciparum W2 IC50 [3]: 0.9060 µg/mL
IC50 [3]: 1.33 µM
X more potent than chloroquine [3]: 0.51

From patent publication US12139481B2, “Compositions comprising macrocycle derivatives incorporating bridged macrocycles and methods of producing and using same” (Southwestern Oklahoma State University, priority 2015, dated 2024)
